According to ChEMBL document CHEMBL1155557, “New quinoline alkaloids from Ruta chalepensis” (2000):
Values after ≈ are worked out from the molar mass of the structure shown.

Assays:
Format in all cases: functional
[1] = test system: Mycolicibacterium smegmatis; experiment: Antibacterial activity against Mycobacterium smegmatis by microtiter plate assay
[2] = test system: Bacillus subtilis; experiment: Antibacterial activity against Bacillus subtilis by microtiter plate assay
[3] = test system: Staphylococcus aureus; experiment: Antibacterial activity against Staphylococcus aureus by microtiter plate assay
[4] = test system: Candida albicans; experiment: […] activity against Candida albicans by microtiter plate assay

MIC [1] [µg/mL] | MIC [2] [µg/mL] | MIC [3] [µg/mL] | MIC [4] [µg/mL] | SMILES
50 (≈ 218 µM) | 50 (≈ 218 µM) | 50 (≈ 218 µM) | 50 (≈ 218 µM) | COc1ccc2nc3occc3c(OC)c2c1 [PTELEINE]
100 (≈ 386 µM) | 100 (≈ 386 µM) | – | – | COc1ccc2c(OC)c3ccoc3nc2c1OC [SKIMMIANINE]
100 (≈ 278 µM) | 100 (≈ 278 µM) | – | – | Cn1c2ccccc2c(=O)c2c(O)cc3c(c21)CC(C(C)(O)CCl)O3 (configuration not stated) [ISOGRAVACRIDONECHLORINE]
100 (≈ 450 µM) | 100 (≈ 450 µM) | – | – | CC(O)CCCCc1ccc2c(c1)OCO2 (configuration not stated) [MOSKACHAN C]

SMILES | MIC [1] [µg/mL] | MIC [2] [µg/mL] | MIC [3] [µg/mL] | MIC [4] [µg/mL]
COc1c2ccccc2nc2occc12 [DICTAMNINE] | 100 (≈ 502 µM) | 100 (≈ 502 µM) | – | –
